Holding throughout (assay): biochemical
Assay [1] addresses T1, panel of 374 wild-type kinases (Homo sapiens, UniProt Q07002).
T1 construct: purchased Reaction Biology Corporation
To be noted: read-out: % Enzyme Activity (relative to DMSO controls), CDK18/cyclin Y (PCTK3).

The target in assay [2] is T2, panel of 374 wild-type kinases (Homo sapiens, UniProt Q96RR4).
T2 construct: purchased Reaction Biology Corporation
To be noted: read-out: % Enzyme Activity (relative to DMSO controls), CAMKK2.

In assay [3] the target is T3, panel of 374 wild-type kinases (Homo sapiens, UniProt Q6P3R8).
T3 construct: purchased Reaction Biology Corporation
T3 sequence (Q6P3R8 1-708): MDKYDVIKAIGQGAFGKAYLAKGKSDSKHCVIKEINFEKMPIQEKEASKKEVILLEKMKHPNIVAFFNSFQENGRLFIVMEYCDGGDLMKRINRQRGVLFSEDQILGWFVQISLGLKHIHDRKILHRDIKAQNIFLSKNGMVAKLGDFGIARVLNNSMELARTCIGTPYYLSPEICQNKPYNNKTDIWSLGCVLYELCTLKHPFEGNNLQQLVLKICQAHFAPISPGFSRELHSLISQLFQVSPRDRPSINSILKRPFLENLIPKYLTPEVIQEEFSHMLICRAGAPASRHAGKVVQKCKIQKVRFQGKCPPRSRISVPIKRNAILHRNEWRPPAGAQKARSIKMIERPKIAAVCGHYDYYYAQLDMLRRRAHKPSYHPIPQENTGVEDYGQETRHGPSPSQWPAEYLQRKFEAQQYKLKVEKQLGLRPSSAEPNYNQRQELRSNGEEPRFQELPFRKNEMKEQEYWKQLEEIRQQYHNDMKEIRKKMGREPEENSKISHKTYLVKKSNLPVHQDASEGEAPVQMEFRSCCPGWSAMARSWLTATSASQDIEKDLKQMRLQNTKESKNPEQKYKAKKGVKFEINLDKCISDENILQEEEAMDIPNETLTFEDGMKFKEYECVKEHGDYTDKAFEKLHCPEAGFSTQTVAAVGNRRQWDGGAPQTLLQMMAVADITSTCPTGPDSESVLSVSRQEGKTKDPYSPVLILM
The following applies: read-out: % Enzyme Activity (relative to DMSO controls), NEK5.

In assay [4] the target is T4, panel of 374 wild-type kinases (Homo sapiens, UniProt P51817).
T4 construct: purchased Reaction Biology Corporation
T4 sequence (P51817 1-358): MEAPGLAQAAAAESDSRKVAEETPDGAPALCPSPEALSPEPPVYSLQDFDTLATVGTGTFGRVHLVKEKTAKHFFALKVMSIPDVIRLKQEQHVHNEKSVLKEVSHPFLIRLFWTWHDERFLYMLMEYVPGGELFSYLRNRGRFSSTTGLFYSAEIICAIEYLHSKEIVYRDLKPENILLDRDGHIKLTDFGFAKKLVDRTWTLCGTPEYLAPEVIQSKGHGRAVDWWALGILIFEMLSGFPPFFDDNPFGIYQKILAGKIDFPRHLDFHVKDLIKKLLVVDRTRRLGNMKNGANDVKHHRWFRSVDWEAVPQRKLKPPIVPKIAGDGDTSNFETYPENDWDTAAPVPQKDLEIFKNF
To be noted: read-out: % Enzyme Activity (relative to DMSO controls), kinase PRKX.

The target in assay [5] is T5, panel of 374 wild-type kinases (Homo sapiens, UniProt Q9H3Y6).
T5 construct: purchased Reaction Biology Corporation
T5 sequence (Q9H3Y6 whole entry): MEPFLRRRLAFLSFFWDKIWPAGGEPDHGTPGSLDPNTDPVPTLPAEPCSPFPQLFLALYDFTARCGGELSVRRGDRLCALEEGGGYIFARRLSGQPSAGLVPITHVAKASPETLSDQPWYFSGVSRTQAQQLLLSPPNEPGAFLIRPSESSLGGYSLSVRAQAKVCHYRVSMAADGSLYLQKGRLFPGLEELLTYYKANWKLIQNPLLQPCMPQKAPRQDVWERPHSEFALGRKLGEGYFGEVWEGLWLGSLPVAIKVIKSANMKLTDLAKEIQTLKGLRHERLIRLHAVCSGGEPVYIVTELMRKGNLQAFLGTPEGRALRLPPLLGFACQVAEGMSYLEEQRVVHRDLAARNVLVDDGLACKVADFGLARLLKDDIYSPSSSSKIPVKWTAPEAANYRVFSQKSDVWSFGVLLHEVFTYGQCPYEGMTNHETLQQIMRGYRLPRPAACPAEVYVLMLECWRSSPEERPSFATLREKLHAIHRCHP
To be noted: read-out: % Enzyme Activity (relative to DMSO controls), kinase SRMS.

For assay [6], the target named is T6, panel of 374 wild-type kinases (Homo sapiens, UniProt P19784).
T6 construct: purchased Reaction Biology Corporation
T6 sequence (P19784 whole entry): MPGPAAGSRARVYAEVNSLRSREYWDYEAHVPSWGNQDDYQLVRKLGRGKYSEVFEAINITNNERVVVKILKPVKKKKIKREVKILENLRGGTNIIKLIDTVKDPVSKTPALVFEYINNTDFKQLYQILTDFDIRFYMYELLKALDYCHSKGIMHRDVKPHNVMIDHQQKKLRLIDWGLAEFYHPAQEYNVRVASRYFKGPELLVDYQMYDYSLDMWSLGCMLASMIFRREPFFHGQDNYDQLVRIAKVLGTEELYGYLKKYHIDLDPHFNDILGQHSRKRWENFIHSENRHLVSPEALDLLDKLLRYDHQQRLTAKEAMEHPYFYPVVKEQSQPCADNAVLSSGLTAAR
To be noted: CK2a2, read-out: % Enzyme Activity (relative to DMSO controls).

Assay [7] deals with T7, panel of 374 wild-type kinases (Homo sapiens, UniProt P35626).
T7 construct: purchased Reaction Biology Corporation
T7 sequence (P35626 1-688): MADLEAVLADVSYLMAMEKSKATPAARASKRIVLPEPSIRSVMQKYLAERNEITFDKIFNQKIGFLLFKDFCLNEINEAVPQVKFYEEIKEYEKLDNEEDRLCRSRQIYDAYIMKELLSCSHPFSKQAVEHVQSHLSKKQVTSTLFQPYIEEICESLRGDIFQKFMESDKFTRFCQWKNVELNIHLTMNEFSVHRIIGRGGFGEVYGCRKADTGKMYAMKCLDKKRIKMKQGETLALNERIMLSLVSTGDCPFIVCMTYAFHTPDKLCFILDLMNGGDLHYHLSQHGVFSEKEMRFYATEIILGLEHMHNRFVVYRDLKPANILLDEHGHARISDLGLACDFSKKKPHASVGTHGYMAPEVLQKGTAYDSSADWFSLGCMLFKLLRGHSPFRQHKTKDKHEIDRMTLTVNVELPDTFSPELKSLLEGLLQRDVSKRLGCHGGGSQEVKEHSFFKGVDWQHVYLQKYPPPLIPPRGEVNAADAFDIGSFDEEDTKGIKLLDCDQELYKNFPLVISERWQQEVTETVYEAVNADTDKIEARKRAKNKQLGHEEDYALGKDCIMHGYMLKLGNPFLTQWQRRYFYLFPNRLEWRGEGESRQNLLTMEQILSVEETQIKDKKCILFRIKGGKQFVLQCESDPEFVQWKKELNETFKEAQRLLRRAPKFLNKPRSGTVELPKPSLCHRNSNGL
To be noted: read-out: % Enzyme Activity (relative to DMSO controls), GRK3.

The target in assay [8] is T8, panel of 374 wild-type kinases (Homo sapiens, UniProt Q86Z02).
T8 construct: purchased Reaction Biology Corporation
T8 sequence (Q86Z02 whole entry): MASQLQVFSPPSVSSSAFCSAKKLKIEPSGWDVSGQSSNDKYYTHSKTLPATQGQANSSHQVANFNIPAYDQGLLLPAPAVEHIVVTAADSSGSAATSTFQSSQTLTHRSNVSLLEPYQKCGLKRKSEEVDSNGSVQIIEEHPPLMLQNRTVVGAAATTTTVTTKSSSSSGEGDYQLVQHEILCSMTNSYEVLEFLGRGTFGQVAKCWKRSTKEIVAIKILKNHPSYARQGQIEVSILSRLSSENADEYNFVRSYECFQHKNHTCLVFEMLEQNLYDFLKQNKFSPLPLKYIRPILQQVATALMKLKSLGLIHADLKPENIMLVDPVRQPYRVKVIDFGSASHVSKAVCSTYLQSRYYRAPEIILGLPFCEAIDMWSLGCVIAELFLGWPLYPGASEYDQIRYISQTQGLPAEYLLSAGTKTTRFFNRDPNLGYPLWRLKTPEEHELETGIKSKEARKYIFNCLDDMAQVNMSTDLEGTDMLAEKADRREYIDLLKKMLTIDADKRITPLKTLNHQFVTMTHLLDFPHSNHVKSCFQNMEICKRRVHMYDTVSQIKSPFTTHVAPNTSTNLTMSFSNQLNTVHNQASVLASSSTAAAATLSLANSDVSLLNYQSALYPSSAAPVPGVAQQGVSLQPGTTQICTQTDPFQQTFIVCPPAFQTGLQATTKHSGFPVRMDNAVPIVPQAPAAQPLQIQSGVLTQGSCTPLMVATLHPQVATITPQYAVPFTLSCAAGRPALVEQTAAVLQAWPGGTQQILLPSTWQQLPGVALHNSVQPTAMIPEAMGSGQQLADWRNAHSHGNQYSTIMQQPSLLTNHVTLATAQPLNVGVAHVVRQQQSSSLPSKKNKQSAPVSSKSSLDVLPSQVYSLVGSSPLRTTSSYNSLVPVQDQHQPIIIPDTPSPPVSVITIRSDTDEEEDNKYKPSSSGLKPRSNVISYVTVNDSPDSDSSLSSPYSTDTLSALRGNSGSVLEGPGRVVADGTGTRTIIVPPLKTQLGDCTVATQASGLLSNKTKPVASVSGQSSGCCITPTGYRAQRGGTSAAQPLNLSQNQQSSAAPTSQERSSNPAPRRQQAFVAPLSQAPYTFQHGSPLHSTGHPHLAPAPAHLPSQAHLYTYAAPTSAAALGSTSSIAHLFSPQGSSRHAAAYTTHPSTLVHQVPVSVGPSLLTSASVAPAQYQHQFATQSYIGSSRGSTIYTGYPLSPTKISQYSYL
To be noted: read-out: % Enzyme Activity (relative to DMSO controls), HIPK1.

Assay [9] addresses T9, panel of 374 wild-type kinases (Homo sapiens, UniProt Q9Y6E0).
T9 construct: purchased Reaction Biology Corporation
To be noted: read-out: % Enzyme Activity (relative to DMSO controls), MST3/STK24.

T1 sequence (Q07002 whole entry): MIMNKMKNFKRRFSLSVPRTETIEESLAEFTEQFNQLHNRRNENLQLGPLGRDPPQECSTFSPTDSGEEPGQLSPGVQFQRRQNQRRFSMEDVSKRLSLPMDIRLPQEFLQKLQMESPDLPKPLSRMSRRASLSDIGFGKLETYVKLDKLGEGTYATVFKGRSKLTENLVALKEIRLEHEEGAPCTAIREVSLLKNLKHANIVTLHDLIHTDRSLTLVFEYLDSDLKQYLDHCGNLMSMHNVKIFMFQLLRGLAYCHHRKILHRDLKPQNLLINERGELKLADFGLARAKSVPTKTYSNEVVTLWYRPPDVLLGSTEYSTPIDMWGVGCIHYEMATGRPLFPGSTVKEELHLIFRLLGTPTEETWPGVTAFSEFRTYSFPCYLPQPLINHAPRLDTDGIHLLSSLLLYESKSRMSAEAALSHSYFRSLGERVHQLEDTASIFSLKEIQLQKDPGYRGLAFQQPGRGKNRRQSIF
T2 sequence (Q96RR4 whole entry): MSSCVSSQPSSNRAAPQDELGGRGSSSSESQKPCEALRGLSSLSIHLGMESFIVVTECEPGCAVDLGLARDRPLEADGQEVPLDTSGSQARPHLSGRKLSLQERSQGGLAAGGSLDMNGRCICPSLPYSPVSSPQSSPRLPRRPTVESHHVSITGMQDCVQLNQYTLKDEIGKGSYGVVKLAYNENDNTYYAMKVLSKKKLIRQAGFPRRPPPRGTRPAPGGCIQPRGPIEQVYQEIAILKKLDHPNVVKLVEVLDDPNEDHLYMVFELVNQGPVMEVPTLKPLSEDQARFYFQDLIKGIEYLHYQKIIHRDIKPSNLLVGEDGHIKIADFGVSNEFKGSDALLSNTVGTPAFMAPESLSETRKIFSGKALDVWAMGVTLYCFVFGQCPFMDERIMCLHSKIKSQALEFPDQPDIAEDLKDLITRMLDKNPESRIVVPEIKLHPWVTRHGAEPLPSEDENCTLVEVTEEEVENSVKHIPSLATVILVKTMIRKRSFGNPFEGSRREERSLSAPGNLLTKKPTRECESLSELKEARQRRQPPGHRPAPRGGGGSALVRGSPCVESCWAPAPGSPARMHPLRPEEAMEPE
T9 sequence (Q9Y6E0 whole entry): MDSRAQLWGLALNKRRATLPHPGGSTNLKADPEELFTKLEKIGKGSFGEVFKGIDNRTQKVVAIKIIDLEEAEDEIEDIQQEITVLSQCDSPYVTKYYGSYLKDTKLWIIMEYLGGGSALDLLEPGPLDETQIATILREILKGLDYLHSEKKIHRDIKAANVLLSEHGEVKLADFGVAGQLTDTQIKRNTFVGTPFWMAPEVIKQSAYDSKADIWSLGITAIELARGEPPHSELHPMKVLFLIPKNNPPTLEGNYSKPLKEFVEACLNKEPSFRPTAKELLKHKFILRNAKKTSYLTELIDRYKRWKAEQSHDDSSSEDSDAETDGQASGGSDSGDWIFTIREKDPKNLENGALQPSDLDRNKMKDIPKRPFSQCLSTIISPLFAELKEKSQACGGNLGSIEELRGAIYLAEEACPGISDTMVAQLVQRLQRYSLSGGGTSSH

Regarding `O=C(Nc1cnn(-c2csc(C(=O)NC3COC3)c2)c1)Nc1ccccc1Cl` [Compound 17, 4-(4-(3-(2-chlorophenyl)ureido)-1H-pyrazol-1-yl)-N-(oxetan-3-yl)thiophene-2-carboxamide], the remaining activity at 5 µM in assay [1] was 101%; in assay [2], 91.1%; in assay [3], 110%; in assay [4] it was 104%; in [5], 99.8%; in assay [6] it was 97.3%. In addition, the results for the remaining activity at 5 µM in [7], in assay [8] and in [9] were 102%, 96.3% and 113%, respectively.

As to `O=C(Nc1cnn(-c2csc(C(=O)NC3COC3)c2)c1)Nc1c(F)cccc1Cl` [Compound 25, 4-(4-(3-(2-chloro-6-fluorophenyl)ureido)-1H-pyrazol-1-yl)-N-(oxetan-3-yl)thiophene-2-carboxamide], the remaining activity at 5 µM in assay [1] worked out at 91.9%; in assay [2], 81%; in assay [3], 88.1%; in assay [4], 91.5%; in assay [5], 105%; in assay [6], 96.6%. The remaining activity at 5 µM was determined as 101% in assay [7], 91.7% in assay [8] and 81.6% in assay [9].

For `Cc1sc(C(=O)NC2COC2)cc1-n1cc(NC(=O)Nc2c(F)cccc2Cl)cn1` [Compound 27, 4-(4-(3-(2-chloro-6-fluorophenyl)ureido)-1H-pyrazol-1-yl)-5-methyl-N-(oxetan-3-yl)thiophene-2-carboxamide], the remaining activity at 10 µM turned out to be 119% in [1] (10 uM); 111% in assay [2] (10 uM); 105% in assay [3] (10 uM); 87.5% in [4] (10 uM); 104% in assay [5] (10 uM); 95.5% in [6] (10 uM). Further, the results for the remaining activity at 10 µM in [7] (10 uM), in assay [8] (10 uM) and in assay [9] (10 uM) were 107%, 116% and 67.3%, respectively.

(Values after patent publication US20240246942A1, “KINASE INHIBITORS FOR THE TREATMENT OF NEURODEGENERATIVE DISEASES” (priority 2020, published 2024).)
